Article PMC5849682, “Novel 2-pheynlbenzofuran derivatives as selective butyrylcholinesterase inhibitors for Alzheimer’s disease” (Scientific Reports, 2018)

Key:
[1] = ABTS radical-scavenging antioxidant assay; conditions: mean ± SD of three independent experiments
Description: Total free radical-scavenging capacity of the compounds was determined by ABTS^.+ [2,2′-azinobis-(3-ethylbenzothiazoline-6-sulfonic acid)] method using Trolox as antioxidant standard, as previously reported.

hBChE = biological target: T1, hBChE (Homo sapiens, UniProt P06276); assay: Cholinesterase assay (Ellman's method), hBChE; format: biochemical; conditions: for IC50: mean ± SD, n = 3; for hBChE inhibitory activity, times more active than galantamine: relative to reference compound galantamine, same assay conditions
T1 construct: butylcholinesterase was from equine serum (eqBChE) or human serum (hBChE); purchased Sigma-Aldrich; host or cells: human serum
T1 sequence (P06276 29-602): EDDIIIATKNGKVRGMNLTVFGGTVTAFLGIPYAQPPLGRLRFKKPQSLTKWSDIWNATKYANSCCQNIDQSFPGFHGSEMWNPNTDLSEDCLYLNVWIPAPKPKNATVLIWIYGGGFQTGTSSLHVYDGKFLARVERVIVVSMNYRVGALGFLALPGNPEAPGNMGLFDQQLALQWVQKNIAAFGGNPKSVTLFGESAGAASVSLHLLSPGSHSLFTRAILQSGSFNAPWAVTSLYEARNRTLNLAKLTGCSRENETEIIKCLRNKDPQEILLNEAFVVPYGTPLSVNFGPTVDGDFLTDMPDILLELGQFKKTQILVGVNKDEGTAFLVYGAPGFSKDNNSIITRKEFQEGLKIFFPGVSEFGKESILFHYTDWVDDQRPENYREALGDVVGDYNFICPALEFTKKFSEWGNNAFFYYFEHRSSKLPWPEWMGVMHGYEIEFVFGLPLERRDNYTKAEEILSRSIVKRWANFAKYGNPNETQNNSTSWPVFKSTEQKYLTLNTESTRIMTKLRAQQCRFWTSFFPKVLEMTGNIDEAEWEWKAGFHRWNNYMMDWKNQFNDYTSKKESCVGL
Description: (§1) The enzymes and reagents for biochemical assays were obtained from Sigma-Aldrich. Kinetic assays of cholinesterase activity were performed using Ellman’s method and analyzed as previously described. Briefly, in the microplate assay the reaction mixture contained phosphate buffer (0.1 M, pH 8.0), AChE or BChE solution (0.3 or 0.15 U/mL respectively), 5,5′-dithiobis-(2-nitrobenzoic) acid (DTNB; 1.5 mM), and inhibitor dissolved in 1% DMSO at the desired concentrations or DMSO alone (control) in a final volume of 0.2 mL. […] The activity of the enzymes was performed at 25 °C.
(§2) Acetylcholinesterase was from Electrophorus electricus (EeAChE), while butylcholinesterase was from equine serum (eqBChE) or human serum (hBChE).
(§3) IC50 values were calculated by the interpolation of dose-response curves using GraphPad Prism 6 (Graphpad Software, San Diego, California, USA).

eqBChE [2] = biological target: T2, eqBChE (Equus caballus, UniProt P81908); assay: Kinetic study of eqBChE inhibition (Lineweaver-Burk plots); format: biochemical; conditions: for type of inhibition: Lineweaver-Burk plot analysis; for KIS (binding with the enzyme-substrate complex): secondary plot of 1/Vmax versus compound concentration; for KIS (binding with the enzyme-substrate complex) / Ki: substrate BTCI; for Ki: secondary plot of slope (Km/Vmax) versus compound concentration, read-out: KI (binding with the free enzyme)
T2 construct: butylcholinesterase was from equine serum (eqBChE); purchased Sigma-Aldrich; host or cells: equine serum
T2 sequence (P81908 whole entry): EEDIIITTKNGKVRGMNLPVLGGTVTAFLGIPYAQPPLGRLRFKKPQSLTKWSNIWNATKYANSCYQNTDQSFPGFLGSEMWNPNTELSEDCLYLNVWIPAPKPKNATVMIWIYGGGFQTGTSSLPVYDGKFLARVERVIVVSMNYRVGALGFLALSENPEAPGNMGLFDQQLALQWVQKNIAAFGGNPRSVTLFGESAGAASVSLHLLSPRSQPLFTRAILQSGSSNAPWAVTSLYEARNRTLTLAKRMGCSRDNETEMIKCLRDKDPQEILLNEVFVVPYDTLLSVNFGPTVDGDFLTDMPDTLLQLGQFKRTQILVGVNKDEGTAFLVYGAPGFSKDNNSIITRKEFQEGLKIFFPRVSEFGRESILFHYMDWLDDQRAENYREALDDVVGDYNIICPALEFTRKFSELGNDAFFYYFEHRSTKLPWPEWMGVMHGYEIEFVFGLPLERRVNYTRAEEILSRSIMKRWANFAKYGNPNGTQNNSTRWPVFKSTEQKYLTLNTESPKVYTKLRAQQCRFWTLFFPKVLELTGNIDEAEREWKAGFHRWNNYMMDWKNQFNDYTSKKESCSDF
Description: . Further to evaluate the selective characteristics and type of inhibition, we investigated the kinetic behaviour of eqBChE at different concentration of S-butyrylthiocholine iodide (BTCI) and inhibitors by Lineweaver-Burk plot analysis (Fig. 2).
The enzymes and reagents for biochemical assays were obtained from Sigma-Aldrich. Kinetic assays of cholinesterase activity were performed using Ellman’s method and analyzed as previously described. Briefly, in the microplate assay the reaction mixture contained phosphate buffer (0.1 M, pH 8.0), AChE or BChE solution (0.3 or 0.15 U/mL respectively), 5,5′-dithiobis-(2-nitrobenzoic) acid (DTNB; 1.5 mM), and inhibitor dissolved in 1% DMSO at the desired concentrations or DMSO alone (control) in a final volume of 0.2 mL. Finally, acetylthiocholine iodide (ATCI) or S-butyrylthiocholine iodide (BTCI) (1.5 mM) as the substrate was added to the reaction mixture and the absorbance immediately monitored at 405 nm. The activity of the enzymes was performed at 25 °C.
Kinetic characterization was performed by constructing Lineweaver-Burk plots by plotting 1/V vs 1/[S] in the presence of different concentrations of inhibitor and substrate. Kinetics constants were determined by the replots of the Slopes (KM/Vmax) or 1/Vmax versus the inhibitor concentration.

EeAChE = biological target: T3, EeAChE (Electrophorus electricus, UniProt O42275); assay: biochemical; format: biochemical; conditions: for IC50: mean ± SD, n = 3
T3 construct: purchased Sigma-Aldrich
T3 sequence (O42275 24-633): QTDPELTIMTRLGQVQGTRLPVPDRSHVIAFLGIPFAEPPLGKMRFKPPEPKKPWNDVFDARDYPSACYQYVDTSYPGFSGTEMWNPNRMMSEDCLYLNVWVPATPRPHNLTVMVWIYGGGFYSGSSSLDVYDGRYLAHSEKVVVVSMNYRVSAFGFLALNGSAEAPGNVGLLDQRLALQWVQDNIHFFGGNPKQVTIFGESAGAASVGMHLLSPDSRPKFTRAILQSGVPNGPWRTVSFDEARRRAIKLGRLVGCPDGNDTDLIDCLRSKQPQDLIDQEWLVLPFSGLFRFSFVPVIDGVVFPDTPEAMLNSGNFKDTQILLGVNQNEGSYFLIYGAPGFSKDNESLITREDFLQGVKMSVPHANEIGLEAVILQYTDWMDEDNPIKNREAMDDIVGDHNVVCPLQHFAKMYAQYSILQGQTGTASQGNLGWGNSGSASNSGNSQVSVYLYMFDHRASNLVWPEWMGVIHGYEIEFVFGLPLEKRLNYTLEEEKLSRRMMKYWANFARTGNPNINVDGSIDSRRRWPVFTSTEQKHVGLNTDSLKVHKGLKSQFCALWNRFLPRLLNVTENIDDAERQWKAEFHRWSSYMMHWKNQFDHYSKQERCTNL
Description: as §1, §2, §3

eqBChE [3] = biological target: T2, eqBChE; assay: biochemical; format: biochemical; conditions: for Selectivity to eqBChE: IC50 for AChE/IC50 for BChE; for IC50: mean ± SD, n = 3
Description: as §1, §2, §3

NSC-34 cells = assay: MTT cell viability assay; format: cell-based, Mouse; conditions: 0–100 μM, 24 h, at the concentration in which eqBChE activity was inhibited
Description: After obtaining encouraging results from the inhibitory assay experiments, biosafety effectiveness of the two promising compounds (15 and 17) was further evaluated. Cells were treated with different concentration of each compound (0–100 μM) for 24 h and their potential cytotoxic effect on NSC-34 cells was determined by using MTT assay. Viability of the cells treated with the compounds 15 and 17 and comparison to the control cells were performed (Fig. 4).
Mouse motor neuron like cell line (NSC-34) was purchased from the American Type Culture Collection (ATCC, Manassas, Virginia, USA). The cells were cultured in Dulbecco’s Modified Eagle Medium (DMEM) containing 10% fetal bovine serum (FBS; Gibco, NY, USA), and 1% penicillin/streptomycin at 37 °C in a humidified atmosphere with 5% CO2. Cell viability was detected by the colorimetric 3-(4,5-dimethylthiazol-2-yl)-2,5-diphenyltetrazolium bromide (MTT) assay. This is a colorimetric assay for measuring the activity of mitochondrial enzymes in living cells that convert MTT into purple formazan crystals. Briefly, cells were seeded in a 96-well plate (10^4 cells/well) and incubated with samples at concentration ranging from 10 to 100 μM for […]. […] The resulting violet formazan precipitates were dissolved in isopropanol and the absorbance of each well was determined at 590 nm using a microplate reader with a 630 nm reference.

BChE = conditions: previous study ref 34; cited from earlier work

Oc1cc(O)cc(-c2cc3cccc(Cl)c3o2)c1 [Compound 15]
EC50 [1]: 14.9 µM | IC50 (hBChE): 27.5 ± 1.82 µM | hBChE inhibitory activity, times more active than galantamine (hBChE): 2 times | type of inhibition (eqBChE [2]): mixed-type inhibitor | KIS (binding with the enzyme-substrate complex) (eqBChE [2]): 8.66 µM | Ki (eqBChE [2]): 13.9 µM | IC50 (EeAChE): ≥ 100 µM | Selectivity to eqBChE (eqBChE [3]): >16.0 | IC50 (eqBChE [3]): 6.23 ± 0.43 µM | cytotoxic effect (NSC-34 cells): no considerable cytotoxic effect

Oc1cc(O)cc(-c2cc3cc(Cl)ccc3o2)c1 [Compound 16]
EC50 [1]: 17.6 ± 0.82 µM | IC50 (EeAChE): 80 ± 7.3 µM | Selectivity to eqBChE (eqBChE [3]): 2.2 | IC50 (eqBChE [3]): 36.6 ± 2.9 µM

Oc1cc(O)cc(-c2cc3cccc(Br)c3o2)c1 [Compound 17]
EC50 [1]: 16.7 ± 1.31 µM | IC50 (hBChE): 27.5 ± 1.53 µM | hBChE inhibitory activity, times more active than galantamine (hBChE): 2 times | type of inhibition (eqBChE [2]): non-competitive inhibitor | KIS (binding with the enzyme-substrate complex) (eqBChE [2]): 4.7 µM | Ki (eqBChE [2]): 4.3 µM | IC50 (EeAChE): 100 ± 6.1 µM | Selectivity to eqBChE (eqBChE [3]): 28.0 | IC50 (eqBChE [3]): 3.57 ± 0.25 µM | eqBChE inhibitory activity, times more active than galantamine (eqBChE [3]; relative to reference compound galantamine): ~8 times | cytotoxic effect (NSC-34 cells): no considerable cytotoxic effect

Oc1cc(O)cc(-c2cc3cc(Br)ccc3o2)c1 [Compound 18]
EC50 [1]: 17.5 ± 0.93 µM | IC50 (EeAChE): 66 ± 4.2 µM | Selectivity to eqBChE (eqBChE [3]): 2.2 | IC50 (eqBChE [3]): 30 ± 2.7 µM

Cc1cccc2cc(-c3cc(O)cc(O)c3)oc12 [Compound 19]
EC50 [1]: 19.3 ± 1.43 µM | IC50 (EeAChE): > 100 µM | Selectivity to eqBChE (eqBChE [3]): >10.0 | IC50 (eqBChE [3]): 10 ± 0.96 µM

Cc1ccc2oc(-c3cc(O)cc(O)c3)cc2c1 [Compound 20]
EC50 [1]: 18.2 ± 0.86 µM | IC50 (EeAChE): > 100 µM | Selectivity to eqBChE (eqBChE [3]): >8.0 | IC50 (eqBChE [3]): 12.5 ± 1.29 µM

Oc1cc(O)cc(-c2cc3ccccc3o2)c1 [Compound 21]
EC50 [1]: 23.2 ± 1.54 µM | IC50 (EeAChE): > 100 µM | Selectivity to eqBChE (eqBChE [3]): >4.0 | IC50 (eqBChE [3]): 25.2 ± 1.3 µM

Oc1cc(-c2cc3cccc(Cl)c3o2)cc(O)c1O [Compound 22]
EC50 [1]: 26.3 ± 1.46 µM | IC50 (EeAChE): 50 ± 3.3 µM | Selectivity to eqBChE (eqBChE [3]): 1.9 | IC50 (eqBChE [3]): 25.7 ± 1.6 µM

Oc1cc(-c2cc3cc(Cl)ccc3o2)cc(O)c1O [Compound 23]
EC50 [1]: 12.5 ± 0.44 µM | IC50 (EeAChE): 30 ± 2.8 µM | Selectivity to eqBChE (eqBChE [3]): 0.78 | IC50 (eqBChE [3]): 38.2 ± 2.4 µM

Oc1cc(-c2cc3cccc(Br)c3o2)cc(O)c1O [Compound 24]
EC50 [1]: 15.4 ± 0.81 µM | IC50 (EeAChE): 37 ± 2.6 µM | Selectivity to eqBChE (eqBChE [3]): 2.0 | IC50 (eqBChE [3]): 18.4 ± 0.93 µM

Oc1cc(-c2cc3cc(Br)ccc3o2)cc(O)c1O [Compound 25]
EC50 [1]: 9.46 ± 0.68 µM | IC50 (EeAChE): 25 ± 1.9 µM | Selectivity to eqBChE (eqBChE [3]): 0.90 | IC50 (eqBChE [3]): 27.6 ± 1.9 µM

Cc1cccc2cc(-c3cc(O)c(O)c(O)c3)oc12 [Compound 26]
EC50 [1]: 6.6 ± 0.24 µM | IC50 (EeAChE): 66 ± 5.4 µM | Selectivity to eqBChE (eqBChE [3]): 3.3 | IC50 (eqBChE [3]): 19.8 ± 1.2 µM

Cc1ccc2oc(-c3cc(O)c(O)c(O)c3)cc2c1 [Compound 27]
EC50 [1]: 8.93 ± 0.57 µM | IC50 (EeAChE): ≥ 100 µM | Selectivity to eqBChE (eqBChE [3]): >6.2 | IC50 (eqBChE [3]): 16.1 ± 1.05 µM

Oc1cc(-c2cc3ccccc3o2)cc(O)c1O [Compound 28]
EC50 [1]: 52.8 ± 2.43 µM | cholinesterase inhibitory activity (EeAChE) (EeAChE): did not exert any cholinesterase inhibitory activity | IC50 (EeAChE): > 100 µM | cholinesterase inhibitory activity (eqBChE) (eqBChE [3]): did not exert any cholinesterase inhibitory activity | IC50 (eqBChE [3]): > 100 µM

Cc1c(C)c2c(c(C)c1O)CCC(C)(C(=O)O)O2 (stereo not drawn) [Trolox, reference compound]
EC50 [1]: 13 ± 1.1 µM
